In US10844064B2, “sGC stimulators” (Cyclerion Therapeutics, Inc., priority 2014, dated 2020):
“And” between values parts separate entries of the source, which are not always exact repeats. Equal entries are not always repeated.

What follows are compounds tested against T1, sGC enzyme (Homo sapiens, UniProt Q02108+Q02153) (assay: cGMP GloSensor cell-based assay, 384-well format (Example 2B)). Settings: HEK293 GloSensor 40F cGMP cells, 10 μM DETA-NONOate; 50% of high control response (Compound Y); read-out: sGC_HEK_GloSensor EC50/IC50 Abs (Norm) (nM) Binned.
T1 construct: host or cells: HEK293 expressing GloSensor 40F cGMP
T1 sequence (Q02108 1-690): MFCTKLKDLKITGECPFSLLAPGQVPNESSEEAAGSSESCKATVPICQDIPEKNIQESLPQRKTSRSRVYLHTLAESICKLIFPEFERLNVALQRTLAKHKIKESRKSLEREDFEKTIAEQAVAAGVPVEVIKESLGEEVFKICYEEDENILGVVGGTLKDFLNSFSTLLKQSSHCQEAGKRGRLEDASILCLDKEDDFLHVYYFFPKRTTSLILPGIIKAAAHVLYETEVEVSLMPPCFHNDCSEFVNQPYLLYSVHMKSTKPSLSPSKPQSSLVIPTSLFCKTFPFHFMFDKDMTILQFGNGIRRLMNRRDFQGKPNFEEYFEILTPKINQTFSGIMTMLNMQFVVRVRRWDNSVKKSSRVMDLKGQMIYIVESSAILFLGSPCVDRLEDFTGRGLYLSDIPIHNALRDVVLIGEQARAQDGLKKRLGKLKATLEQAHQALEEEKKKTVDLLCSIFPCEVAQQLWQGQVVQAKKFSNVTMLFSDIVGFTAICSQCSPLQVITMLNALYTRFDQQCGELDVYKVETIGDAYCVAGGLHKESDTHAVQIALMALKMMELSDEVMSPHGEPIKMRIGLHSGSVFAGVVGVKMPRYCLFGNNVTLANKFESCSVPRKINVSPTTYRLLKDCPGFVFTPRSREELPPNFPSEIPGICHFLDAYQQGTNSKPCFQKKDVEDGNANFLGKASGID
T1 sequence (Q02153 1-619): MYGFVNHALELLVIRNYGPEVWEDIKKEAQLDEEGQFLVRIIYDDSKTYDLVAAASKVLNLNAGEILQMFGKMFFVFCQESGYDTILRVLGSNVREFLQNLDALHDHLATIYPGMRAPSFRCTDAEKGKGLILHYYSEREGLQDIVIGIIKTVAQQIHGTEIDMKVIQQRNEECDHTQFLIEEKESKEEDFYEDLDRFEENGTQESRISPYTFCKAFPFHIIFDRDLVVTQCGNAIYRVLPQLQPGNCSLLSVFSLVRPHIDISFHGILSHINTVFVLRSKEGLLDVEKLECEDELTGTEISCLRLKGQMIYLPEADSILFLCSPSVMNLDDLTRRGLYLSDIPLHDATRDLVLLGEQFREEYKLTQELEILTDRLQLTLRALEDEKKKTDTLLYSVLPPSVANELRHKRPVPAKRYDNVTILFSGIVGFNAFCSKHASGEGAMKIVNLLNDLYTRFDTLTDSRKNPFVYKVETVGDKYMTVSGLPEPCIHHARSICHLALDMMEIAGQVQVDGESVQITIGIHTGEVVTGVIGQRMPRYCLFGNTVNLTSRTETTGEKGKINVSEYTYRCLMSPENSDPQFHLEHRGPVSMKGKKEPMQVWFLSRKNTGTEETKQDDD
Procedure: Data were normalized to a high control using the following equation: 100*(Sample—Low Control)/(High Control—Low Control), where the low control is the average of 16 samples treated with 1% DMSO, and the high control is the average of 16 samples treated with 30 μM of Compound Y depicted below. Data were fit using a 4-parameter fit (log(agonist) vs. response variable slope) using GraphPad Prism Software v.5. n=2 for all compounds. […] Compounds failing to elicit a minimum response of 50% are reported as >30 μM. For compounds run in duplicate or n higher than 2, the result herein given is the geometric mean of the several results obtained.
Human embryonic kidney cells (HEK293) cells expressing GloSensor™ 40F cGMP (Part No: CS182801, Promega) were used to evaluate the activity of test compounds. The luminescent biosensors (engineered luciferase) that were incorporated into these cells detect cGMP formed by the compounds stimulating the sGC enzyme and emit luminescence.
cGMP GloSensor cells were maintained in Dulbecco's Modification of Eagle's Medium (DMEM) supplemented with fetal bovine serum (FBS) (10% final) and hygromycine (200 μg/ml). The day before assay, cells were plated in DMEM with 10% FBS in a 50 μL volume at a density of 1.5×10^4 cells/well in a poly-D-lysine coated 384-well flat white-bottom plate (Corning Cat No 35661). Cells were incubated overnight at 37° C. in a humidified chamber with 5% CO2. The next day, medium was removed and cells were replaced with 40 μl/well of GloSensor™, […] (Promega Cat No E1291). Cells were treated for 90 minutes at 25° C. to allow the substrate to equilibrate in the cells. Test compounds and Diethylenetriamine NONOate (DETA-NONOate) was diluted to […] in serum-free CO2 independent medium and serally diluted at 4× dilutions to create 5× dose curve from which 10 ul was added to the wells (x uM concentration for test compound solution and 10 μM concentration for DETA-NONOate solution; wherein x is one of the following final concentrations).
For the kinetics studies, luminescense was measured right away for 0.2 sec per well with Envision (Perkin Elmer model No). For endpoint SAR screening, data were collected after 55 min incubation at room temperature.
Data analysis was carried out as indicated above in Example 2A.

Row | EC50 | Structure (SMILES)
1 | 100 to 1000 nM | Cc1cn(-c2nc(O)c3c(n2)NC(=O)C3(C)C)nc1Cc1ccccc1F [Compound I-86]
2 | 100 to 1000 nM | CC1(C)C(=O)Nc2nc(-n3cc(-c4ccon4)c(Cc4ccccc4F)n3)ncc21 [Compound I-81, 2-(3-(2-fluorobenzyl)-4-(isoxazol-3-yl)-1H-pyrazol-1-yl)-5,5-dimethyl-5H-pyrrolo[2,3-d]pyrimidin-6(7H)-one]
3 | < 100 nM | COc1cc(-c2nc(N)c3c(n2)NC(=O)C3(C)C)nn1Cc1ccccc1 [Compound I-51, 4-amino-2-(1-benzyl-5-methoxy-1H-pyrazol-3-yl)-5,5-dimethyl-5H-pyrrolo-[2,3-d]pyrimidin-6(7H)-one]
4 | 100 to 1000 nM | CC1(C)C(=O)Nc2nc(-c3ccn(Cc4ccccc4F)n3)nc(N3CCOCC3)c21 [Compound I-76]
5 | > 30000 nM | COc1ccc(CN2C(=O)C(C)(C)c3nnc(-n4cc(OC)c(Cc5ccccc5F)n4)nc32)cc1 [Compound I-91, 3-(3-(2-fluorobenzyl)-4-methoxy-1H-pyrazol-1-yl)-5-(4-methoxybenzyl)-7,7-dimethyl-5H-pyrrolo[2,3-e][1,2,4]triazin-6(7H)-one]
6 | > 1000 nM | COc1cc(-c2nc(N)c3c(n2)NC(=O)C3(C)C)nn1Cc1cncnc1 [Compound I-92, 4-amino-2-(5-methoxy-1-(pyrimidin-5-ylmethyl)-1H-pyrazol-3-yl)-5,5-dimethyl-5H-pyrrolo[2,3-d]pyrimidin-6(7H)-one]
7 | 100 to 1000 nM | CC1(C)C(=O)Nc2nc(-c3ccn(Cc4ccccc4F)n3)ncc21 [Compound I-74]
8 | < 100 nM | Cc1cn(-c2nc(N)c3c(n2)NC(=O)C3(C)C)nc1Cc1ccccc1F [Compound I-84, 4-amino-2-(3-(2-fluorobenzyl)-4-methyl-1H-pyrazol-1-yl)-5,5-dimethyl-5H-pyrrolo[2,3-d]pyrimidin-6(7H)-one]
9 | 100 to 1000 nM | CC(=O)c1cc(-c2nnc3c(n2)NC(=O)C3(C)C)nn1Cc1ccccc1F [Compound I-70]
10 | > 1000 nM | CC(C)Oc1cc(-c2ncc3c(n2)NC(=O)C3(C)C)nn1Cc1ccccc1F [Compound I-36]
11 | < 100 nM | CC1(C)C(=O)Nc2nc(-c3cc(C#N)n(Cc4ccccc4F)n3)ncc21 [Compound I-45]
12 | > 1000 nM | COc1c(C)c(-c2nc(O)c3c(n2)NC(=O)C3(C)C)nn1Cc1ccccc1F [Compound I-42]
13 | 100 to 1000 nM | COc1cc(-c2ncc3c(n2)N(C(=O)OC(C)(C)C)C(=O)C3(C)C)nn1Cc1ccccc1 [Compound I-54, 2-(1-benzyl-5-methoxy-1H-pyrazol-3-yl)-5,5-dimethyl-6-oxo-5H-pyrrolo-[2,3-d]pyrimidine-7(6H)-carboxylate]
14 | < 100 nM | COc1cn(-c2nc(N)c3c(n2)NC(=O)C3(C)C)nc1Cc1ccccc1F [Compound I-82, 4-amino-2-(3-(2-fluorobenzyl)-4-methoxy-1H-pyrazol-1-yl)-5,5-dimethyl-5H-pyrrolo[2,3-d]pyrimidin-6(7H)-one]
15 | > 1000 nM | CC1(C)C(=O)Nc2nnc(-c3cc(-c4ccon4)n(Cc4ccccc4F)n3)nc21 [Compound I-68]
16 | < 100 nM | COc1c(Cl)c(-c2ncc3c(n2)NC(=O)C3(C)C)nn1Cc1ccccc1F [Compound I-44]
17 | > 1000 nM | COc1cc(-c2ncc3c(n2)N(C)C(=O)C3(C)C)nn1Cc1ccccc1F [Compound I-26]
18 | 100 to 1000 nM | CC1(C)C(=O)Nc2nc(-c3cc(C#N)n(Cc4ccccc4F)n3)nnc21 [Compound I-69]
19 | < 100 nM | COc1cn(-c2ncc3c(n2)NC(=O)C3(C)C)nc1Cc1ccccc1F [Compound I-38]
20 | > 30000 nM | Cn1c(=O)[nH]c2nc(-c3cc(-c4ccon4)n(Cc4ccccc4F)n3)ncc21 [Compound I-65]
21 | > 1000 nM | COc1cc(-c2ncc3c(n2)N(CC2CC2)C(=O)C3(C)C)nn1Cc1ccccc1F [Compound I-33]

Row | EC50 | Structure (SMILES)
22 | 100 to 1000 nM | Cc1cn(-c2ncc3c(n2)NC(=O)C3(C)C)nc1Cc1ccccc1F [Compound I-85]
23 | > 1000 nM | CCOc1cc(-c2ncc3c(n2)NC(=O)C3(C)C)nn1Cc1ccccc1F [Compound I-34]
24 | 100 to 1000 nM | COc1cc(-c2ncc3c(n2)NC(=O)C3(C)C)nn1Cc1ccccc1 [Compound I-52]
25 | < 100 nM | COc1cn(-c2nc(O)c3c(n2)NC(=O)C3(C)C)nc1Cc1ccccc1F [Compound I-83]
26 | < 100 nM | CC1(C)C(=O)Nc2nc(-n3cc(-c4ccon4)c(Cc4ccccc4F)n3)nc(N)c21 [Compound I-80, 4-amino-2-(3-(2-fluorobenzyl)-4-(isoxazol-3-yl)-1H-pyrazol-1-yl)-5,5-dimethyl-5H-pyrrolo[2,3-d]pyrimidin-6(7H)-one]
27 | > 1000 nM | Cc1nc(-c2ncc3c(n2)NC(=O)C3(C)C)nn1Cc1ccccc1F [Compound I-89]
28 | < 100 nM | COc1cc(-c2ncc3c(n2)NC(=O)C3(C)C)nn1Cc1cccc(F)c1 [Compound I-55]
29 | > 1000 nM | CC1(C)C(=O)Nc2nc(-n3cc(O)c(Cc4ccccc4F)n3)ncc21 [Compound I-37]
30 | 100 to 1000 nM | CC1(C)C(=O)Nc2nc(-c3cc(OC(F)F)n(Cc4ccccc4F)n3)ncc21 [Compound I-31]
31 | 100 to 1000 nM | CC1(C)C(=O)Nc2nc(-c3cc(OC(F)F)n(Cc4ccccc4F)n3)nc(O)c21 [Compound I-32]
32 | > 1000 nM | COc1cc(-c2ncc3c(n2)NC(=O)C3(C)C)nn1Cc1ccc(C(F)(F)F)c(F)c1 [Compound I-64]
33 | > 1000 nM | COc1cc(-c2ncc3c(n2)NC(=O)C3(C)C)nn1Cc1ccc(C(F)(F)F)cc1 [Compound I-62]
34 | < 100 nM | COc1cc(-c2ncc3c(n2)NC(=O)C3(C)C)nn1Cc1ccc(C)cc1 [Compound I-58]
35 | 100 to 1000 nM | COc1cc(-c2ncc3c(n2)NC(=O)C3(C)C)nn1Cc1ccc(F)cc1 [Compound I-57]
36 | 100 to 1000 nM | COc1cc(-c2ncc3c(n2)NC(=O)C3(C)C)nn1Cc1cccc(Cl)c1 [Compound I-59]
37 | > 1000 nM | CCCOc1cc(-c2ncc3c(n2)NC(=O)C3(C)C)nn1Cc1ccccc1F [Compound I-35]
38 | > 1000 nM | CC1(C)C(=O)Nc2nc(-c3ccn(Cc4ccccc4F)n3)nc(O)c21 [Compound I-79]
39 | 100 to 1000 nM | CC1(C)C(=O)Nc2nc(-c3ccn(Cc4ccccc4F)n3)nc(N)c21 [Compound I-73, 4-amino-2-(1-(2-fluorobenzyl)-1H-pyrazol-3-yl)-5,5-dimethyl-5H-pyrrolo[2,3-d]pyrimidin-6(7H)-one]
40 | 100 to 1000 nM | COc1cc(-c2ncc3c(n2)NCC3(C)C)nn1Cc1ccccc1F [Compound I-27]
41 | 100 to 1000 nM | COc1c(C)c(-c2ncc3c(n2)NC(=O)C3(C)C)nn1Cc1ccccc1F [Compound I-43]
42 | > 1000 nM and < 100 nM | Cn1cc(-c2nc(N)c3c(n2)NC(=O)C3(C)C)nc1Cc1ccccc1F [Compound I-12]
